Results taken from patent US20240000872A1, “NOVEL BACTERIOPHAGE THAT LYSES ACINETOBACTER GENUS BACTERIA HAVING RESISTANCE TO ANTIBIOTICS” (priority 2020, published 2024).

System: Acinetobacter baumannii strains
Assay: Antibiotic susceptibility test (CLSI disk diffusion test method, read per CLSI 2016); for antibiotic susceptibility S/I/R: key: ‘S’ means susceptible; ‘I’ means intermediate; ‘R’ means resistant; for antibiotic susceptibility class: key: ‘S’ means susceptible; ‘I’ means intermediate; ‘R’ means resistant; for susceptibility category (S/I/R): key: ‘S’ means susceptible; ‘I’ means intermediate; ‘R’ means resistant
Assay type: cell-based
Parameters: antibiotic susceptibility test value / susceptibility test value (number given before S/I/R) / antibiotic susceptibility value: unit not given here

ampicillin-sulbactam
antibiotic susceptibility class (host strain YMC14/01/C29): R
antibiotic susceptibility test value (host strain YMC14/01/C29): 32
antibiotic susceptibility class (host strain YMC14/01/IP122): R
antibiotic susceptibility test value (host strain YMC14/01/IP122): 32
antibiotic susceptibility class (host strain YMC14/01/L8): R
antibiotic susceptibility test value (host strain YMC14/01/L8): 32
antibiotic susceptibility class (host strain YMC14/01/P31): R
antibiotic susceptibility test value (host strain YMC14/01/P31): 32
antibiotic susceptibility class (host strain YMC14/01/P117): R
antibiotic susceptibility test value (host strain YMC14/01/P117): 32
antibiotic susceptibility class (host strain YMC14/01/P224): I
antibiotic susceptibility test value (host strain YMC14/01/P224): 16
antibiotic susceptibility class (host strain YMC14/01/P727): R
antibiotic susceptibility test value (host strain YMC14/01/P727): 32
antibiotic susceptibility class (host strain YMC14/01/P728): I
antibiotic susceptibility test value (host strain YMC14/01/P728): 16
antibiotic susceptibility class (host strain YMC14/01/R130): I
antibiotic susceptibility test value (host strain YMC14/01/R130): 16
antibiotic susceptibility class (host strain YMC14/01/R160): R
antibiotic susceptibility test value (host strain YMC14/01/R160): 32
antibiotic susceptibility class (host strain YMC14/01/R198): R
antibiotic susceptibility test value (host strain YMC14/01/R198): 32
antibiotic susceptibility class (host strain YMC14/01/R257): R
antibiotic susceptibility test value (host strain YMC14/01/R257): 32
antibiotic susceptibility class (host strain YMC14/01/R270): R
antibiotic susceptibility test value (host strain YMC14/01/R270): 32
antibiotic susceptibility class (host strain YMC14/01/R324): S
antibiotic susceptibility test value (host strain YMC14/01/R324): 8
antibiotic susceptibility class (host strain YMC14/01/R443): R
antibiotic susceptibility test value (host strain YMC14/01/R443): 32
antibiotic susceptibility class (host strain YMC14/01/R451): R
antibiotic susceptibility test value (host strain YMC14/01/R451): 32
antibiotic susceptibility class (host strain YMC14/01/R560): R
antibiotic susceptibility test value (host strain YMC14/01/R560): 32
antibiotic susceptibility class (host strain YMC14/01/R617): R
antibiotic susceptibility test value (host strain YMC14/01/R617): 32
antibiotic susceptibility class (host strain YMC14/01/R671): R
antibiotic susceptibility test value (host strain YMC14/01/R671): 32
antibiotic susceptibility class (host strain YMC14/01/R732): R
antibiotic susceptibility test value (host strain YMC14/01/R732): 32
antibiotic susceptibility class (host strain YMC14/01/R767): I
antibiotic susceptibility test value (host strain YMC14/01/R767): 16
antibiotic susceptibility class (host strain YMC14/01/R904): R
antibiotic susceptibility test value (host strain YMC14/01/R904): 32
antibiotic susceptibility class (host strain YMC14/01/R905): R
antibiotic susceptibility test value (host strain YMC14/01/R905): 32
antibiotic susceptibility class (host strain YMC14/01/R921): I
antibiotic susceptibility test value (host strain YMC14/01/R921): 16
antibiotic susceptibility class (host strain YMC14/01/R941): R
antibiotic susceptibility test value (host strain YMC14/01/R941): 32
antibiotic susceptibility class (host strain YMC14/01/R958): I
antibiotic susceptibility test value (host strain YMC14/01/R958): 16
antibiotic susceptibility class (host strain YMC14/01/R1006): I
antibiotic susceptibility test value (host strain YMC14/01/R1006): 16
antibiotic susceptibility class (host strain YMC14/01/R1199): I
antibiotic susceptibility test value (host strain YMC14/01/R1199): 16
antibiotic susceptibility class (host strain YMC14/01/R1659): I
antibiotic susceptibility test value (host strain YMC14/01/R1659): 16
antibiotic susceptibility class (host strain YMC14/01/R1722): I
antibiotic susceptibility test value (host strain YMC14/01/R1722): 16
antibiotic susceptibility class (host strain YMC14/01/R1752): I
antibiotic susceptibility test value (host strain YMC14/01/R1752): 16
antibiotic susceptibility class (host strain YMC14/01/R2429): I
antibiotic susceptibility test value (host strain YMC14/01/R2429): 16
antibiotic susceptibility class (host strain YMC14/01/R2572): I
antibiotic susceptibility test value (host strain YMC14/01/R2572): 16
antibiotic susceptibility class (host strain YMC14/01/R2855): I
antibiotic susceptibility test value (host strain YMC14/01/R2855): 16
antibiotic susceptibility class (host strain YMC14/01/R2945): S
antibiotic susceptibility test value (host strain YMC14/01/R2945): 4
antibiotic susceptibility class (host strain YMC14/01/R3007): I
antibiotic susceptibility test value (host strain YMC14/01/R3007): 16
antibiotic susceptibility class (host strain YMC14/01/R3129): R
antibiotic susceptibility test value (host strain YMC14/01/R3129): 32
antibiotic susceptibility class (host strain YMC14/01/R3317): I
antibiotic susceptibility test value (host strain YMC14/01/R3317): 16
antibiotic susceptibility class (host strain YMC14/01/R3474): R
antibiotic susceptibility test value (host strain YMC14/01/R3474): 32
antibiotic susceptibility class (host strain YMC14/01/R3574): I
antibiotic susceptibility test value (host strain YMC14/01/R3574): 16
antibiotic susceptibility class (host strain YMC14/01/U313): S
antibiotic susceptibility test value (host strain YMC14/01/U313): 2
antibiotic susceptibility class (host strain YMC14/01/U318): R
antibiotic susceptibility test value (host strain YMC14/01/U318): 32
antibiotic susceptibility class (host strain YMC14/02/L18): I
antibiotic susceptibility test value (host strain YMC14/02/L18): 16
antibiotic susceptibility class (host strain YMC14/02/P47): R
antibiotic susceptibility test value (host strain YMC14/02/P47): 32
antibiotic susceptibility class (host strain YMC14/02/R1860): I
antibiotic susceptibility test value (host strain YMC14/02/R1860): 16
antibiotic susceptibility class (host strain YMC14/02/R2417): I
antibiotic susceptibility test value (host strain YMC14/02/R2417): 16
antibiotic susceptibility class (host strain YMC14/02/R2599): R
antibiotic susceptibility test value (host strain YMC14/02/R2599): 32
antibiotic susceptibility class (host strain YMC14/02/R2668): S
antibiotic susceptibility test value (host strain YMC14/02/R2668): 8
antibiotic susceptibility class (host strain YMC14/02/R2758): S
antibiotic susceptibility test value (host strain YMC14/02/R2758): 8
antibiotic susceptibility class (host strain YMC14/02/R2781): R
antibiotic susceptibility test value (host strain YMC14/02/R2781): 32
antibiotic susceptibility class (host strain YMC14/02/R3106): S
antibiotic susceptibility test value (host strain YMC14/02/R3106): 8
antibiotic susceptibility class (host strain YMC14/02/R3419): I
antibiotic susceptibility test value (host strain YMC14/02/R3419): 16
antibiotic susceptibility class (host strain YMC14/02/U1607): I
antibiotic susceptibility test value (host strain YMC14/02/U1607): 16
antibiotic susceptibility class (host strain YMC14/03/L9): I
antibiotic susceptibility test value (host strain YMC14/03/L9): 16
antibiotic susceptibility class (host strain YMC14/03/P471): S
antibiotic susceptibility test value (host strain YMC14/03/P471): 8
antibiotic susceptibility class (host strain YMC14/03/R122): R
antibiotic susceptibility test value (host strain YMC14/03/R122): 32
antibiotic susceptibility class (host strain YMC14/03/R217): I
antibiotic susceptibility test value (host strain YMC14/03/R217): 16
antibiotic susceptibility class (host strain YMC14/03/R380): S
antibiotic susceptibility test value (host strain YMC14/03/R380): 8
antibiotic susceptibility class (host strain YMC14/03/R618): S
antibiotic susceptibility test value (host strain YMC14/03/R618): 8
antibiotic susceptibility class (host strain YMC14/03/R2144): I
antibiotic susceptibility test value (host strain YMC14/03/R2144): 16
antibiotic susceptibility class (host strain YMC14/03/U4616): I
antibiotic susceptibility test value (host strain YMC14/03/U4616): 16
antibiotic susceptibility class (host strain YMC14/04/R1078): R
antibiotic susceptibility test value (host strain YMC14/04/R1078): 32
antibiotic susceptibility class (host strain YMC14/04/R1080): S
antibiotic susceptibility test value (host strain YMC14/04/R1080): 4
antibiotic susceptibility S/I/R (host strain YMC14/06/R2359): S
antibiotic susceptibility value (host strain YMC14/06/R2359): 8
susceptibility category (S/I/R) (host strain YMC14/06/R2359): S
susceptibility test value (number given before S/I/R) (host strain YMC14/06/R2359): 8
antibiotic susceptibility value (host strain YMC14/08/R1169): 16
susceptibility category (S/I/R) (host strain YMC14/08/R1169): I
susceptibility test value (number given before S/I/R) (host strain YMC14/08/R1169): 16
antibiotic susceptibility S/I/R (host strain YMC14/08/T90): S
antibiotic susceptibility value (host strain YMC14/08/T90): 8
susceptibility category (S/I/R) (host strain YMC14/08/T90): S
susceptibility test value (number given before S/I/R) (host strain YMC14/08/T90): 8
antibiotic susceptibility S/I/R (host strain YMC15/02/R436): R
antibiotic susceptibility value (host strain YMC15/02/R436): 32
susceptibility category (S/I/R) (host strain YMC15/02/R436): R
susceptibility test value (number given before S/I/R) (host strain YMC15/02/R436): 32
antibiotic susceptibility value (host strain YMC15/02/T28): 16
susceptibility category (S/I/R) (host strain YMC15/02/T28): I
susceptibility test value (number given before S/I/R) (host strain YMC15/02/T28): 16
antibiotic susceptibility value (host strain YMC15/03/R1604): 16
susceptibility category (S/I/R) (host strain YMC15/03/R1604): I
susceptibility test value (number given before S/I/R) (host strain YMC15/03/R1604): 16
antibiotic susceptibility value (host strain YMC15/09/R1869): 16
susceptibility category (S/I/R) (host strain YMC15/09/R1869): I
susceptibility test value (number given before S/I/R) (host strain YMC15/09/R1869): 16
antibiotic susceptibility S/I/R (host strain YMC16/01/P11): R
antibiotic susceptibility value (host strain YMC16/01/P11): 32
susceptibility category (S/I/R) (host strain YMC16/01/P11): R
susceptibility test value (number given before S/I/R) (host strain YMC16/01/P11): 32
antibiotic susceptibility S/I/R (host strain YMC16/01/R123): R
